Source: ChEMBL document CHEMBL3875216, “Synthesis of antimicrobial glucosamides as bacterial quorum sensing mechanism inhibitors” (Bioorg Med Chem, 2017)

How the values were obtained:
[1] = tested on: Escherichia coli; experiment: Growth inhibition of Escherichia coli MT102 at 1 mM after 24 hrs relative to control; settings: MT102, 24 h, read-out: GI
[2] = tested on: Escherichia coli; experiment: Inhibition of LuxR-dependent quorum sensing activity in Escherichia coli MT102 harboring pJBA132 assessed as inhibition of OHHL-induced GFP expression at 1 mM measured after 24 hrs by fluorescence assay relative to control
[3] = tested on: Escherichia coli; experiment: Inhibition of LuxR-dependent quorum sensing activity in Escherichia coli MT102 harboring pJBA132 assessed as inhibition of OHHL-induced GFP expression at 2 mM measured after 24 hrs by fluorescence assay relative to control
[4] = tested on: Escherichia coli; experiment: Growth inhibition of Escherichia coli MT102 at 2 mM after 24 hrs relative to control; settings: MT102, 24 h, read-out: GI
[5] = tested on: Escherichia coli; experiment: Growth inhibition of Escherichia coli MT102 at 500 uM after 8 hrs relative to control; settings: MT102, 8 h, read-out: GI
[6] = tested on: Pseudomonas aeruginosa; experiment: Inhibition of LasR-dependent quorum sensing activity in Pseudomonas aeruginosa MH602 harboring GFP-fused […] LasB promoter assessed as inhibition of 3-oxo-dodecanoyl HSL-induced GFP expression at 500 uM measured after 8 hrs by fluorescence assay relative to control
[7] = tested on: Pseudomonas aeruginosa; experiment: Inhibition of LasR-dependent quorum sensing activity in Pseudomonas aeruginosa MH602 harboring GFP-fused […] LasB promoter assessed as inhibition of 3-oxo-dodecanoyl HSL-induced GFP expression at 1 mM measured after 24 hrs by fluorescence assay relative to control
[8] = tested on: Pseudomonas aeruginosa; experiment: Growth inhibition of Pseudomonas aeruginosa MH602 at 500 uM after 24 hrs relative to control; settings: MH602, 24 h, read-out: GI
[9] = tested on: Pseudomonas aeruginosa; experiment: Inhibition of LasR-dependent quorum sensing activity in Pseudomonas aeruginosa MH602 harboring GFP-fused […] LasB promoter assessed as inhibition of 3-oxo-dodecanoyl HSL-induced GFP expression at 500 uM measured after 24 hrs by fluorescence assay relative to control
[10] = tested on: Escherichia coli; experiment: Growth inhibition of Escherichia coli MT102 at 500 uM after 24 hrs relative to control; settings: MT102, 24 h, read-out: GI
[11] = tested on: Pseudomonas aeruginosa; experiment: Growth inhibition of Pseudomonas aeruginosa MH602 at 1 mM after 8 hrs relative to control; settings: MH602, 8 h, read-out: GI
[12] = tested on: Pseudomonas aeruginosa; experiment: Growth inhibition of Pseudomonas aeruginosa MH602 at 2 mM after 8 hrs relative to control; settings: MH602, 8 h, read-out: GI
[13] = tested on: Escherichia coli; experiment: Inhibition of LuxR-dependent quorum sensing activity in Escherichia coli MT102 harboring pJBA132 assessed as inhibition of OHHL-induced GFP expression at 1 mM measured after 8 hrs by fluorescence assay relative to control
[14] = tested on: Pseudomonas aeruginosa; experiment: Growth inhibition of Pseudomonas aeruginosa MH602 at 500 uM after 8 hrs relative to control; settings: MH602, 8 h, read-out: GI
[15] = tested on: Pseudomonas aeruginosa; experiment: Growth inhibition of Pseudomonas aeruginosa MH602 at 2 mM after 24 hrs relative to control; settings: MH602, 24 h, read-out: GI
[16] = tested on: Pseudomonas aeruginosa; experiment: Inhibition of LasR-dependent quorum sensing activity in Pseudomonas aeruginosa MH602 harboring GFP-fused […] LasB promoter assessed as inhibition of 3-oxo-dodecanoyl HSL-induced GFP expression at 2 mM measured after 8 hrs by fluorescence assay relative to control
[17] = tested on: Pseudomonas aeruginosa; experiment: Growth inhibition of Pseudomonas aeruginosa PA14 at 2 mM after 24 hrs relative to control; settings: 2000 µM
[18] = tested on: Escherichia coli; experiment: Growth inhibition of Escherichia coli MT102 at 1 mM after 8 hrs relative to control; settings: MT102, 8 h, read-out: GI
[19] = tested on: Pseudomonas aeruginosa; experiment: Inhibition of LasR-dependent quorum sensing activity in Pseudomonas aeruginosa MH602 harboring GFP-fused […] LasB promoter assessed as inhibition of 3-oxo-dodecanoyl HSL-induced GFP expression at 1 mM measured after 8 hrs by fluorescence assay relative to control
[20] = tested on: Escherichia coli; experiment: Growth inhibition of Escherichia coli MT102 at 2 mM after 8 hrs relative to control; settings: MT102, 8 h, read-out: GI
[21] = tested on: Pseudomonas aeruginosa; experiment: Inhibition of LasR-dependent quorum sensing activity in Pseudomonas aeruginosa MH602 harboring GFP-fused […] LasB promoter assessed as inhibition of 3-oxo-dodecanoyl HSL-induced GFP expression at 2 mM measured after 24 hrs by fluorescence assay relative to control
[22] = tested on: Pseudomonas aeruginosa; experiment: Growth inhibition of Pseudomonas aeruginosa MH602 at 1 mM after 24 hrs relative to control; settings: MH602, 24 h, read-out: GI
[23] = tested on: Escherichia coli; experiment: Inhibition of LuxR-dependent quorum sensing activity in Escherichia coli MT102 harboring pJBA132 assessed as inhibition of OHHL-induced GFP expression at 2 mM measured after 8 hrs by fluorescence assay relative to control
[24] = tested on: Escherichia coli; experiment: Inhibition of LuxR-dependent quorum sensing activity in Escherichia coli MT102 harboring pJBA132 assessed as inhibition of OHHL-induced GFP expression at 500 uM measured after 8 hrs by fluorescence assay relative to control
[25] = tested on: Escherichia coli; experiment: Inhibition of LuxR-dependent quorum sensing activity in Escherichia coli MT102 harboring pJBA132 assessed as inhibition of OHHL-induced GFP expression at 500 uM measured after 24 hrs by fluorescence assay relative to control
[26] = tested on: Pseudomonas aeruginosa PA14; experiment: Inhibition of quorum sensing-regulated biofilm formation in Pseudomonas aeruginosa PA14 at 2 mM after overnight incubation by crystal violet staining based assay relative to control
[27] = tested on: Pseudomonas aeruginosa PA14; experiment: Inhibition of quorum sensing-regulated pyocyanin production in Pseudomonas aeruginosa PA14 at 2 mM after 24 hrs relative to control

SMILES | inhibition at 1000 µM [1] [%] | inhibition [2] [%] | inhibition [3] [%] | inhibition at 2000 µM [4] [%] | inhibition at 500 µM [5] [%] | inhibition [6] [%] | inhibition at 500 µM [8] [%] | inhibition [9] [%] | inhibition at 500 µM [10] [%] | inhibition at 1000 µM [11] [%] | inhibition at 2000 µM [12] [%] | inhibition [13] [%] | inhibition at 500 µM [14] [%] | inhibition at 2000 µM [15] [%] | growth inhibition (GI) [17] | inhibition at 1000 µM [18] [%] | inhibition [19] [%] | inhibition at 2000 µM [20] [%] | inhibition [21] [%] | inhibition at 1000 µM [22] [%] | also measured
CCCCCC(=O)N[C@H]1[C@H](OC(C)=O)O[C@H](COC(C)=O)[C@@H](OC(C)=O)[C@@H]1OC(C)=O | 10.8 | 6.6 | 17.2 | 15.2 | 20.5 | 3.5 | 0 | 3.1 | 2.2 | 2.7 | 9.5 | 14.6 | 3 | 6.8 | Non-Toxic | 16.9 | 10.5 | 30.3 | 22.8 | 4.5 | inhibition [7]: 2.6%; inhibition [16]: 4%; inhibition [23]: 11.6%
CC(=O)N[C@@H]1[C@@H](O)[C@H](O)[C@@H](CO)O[C@H]1O [N-ACETYLGLUCOSAMINE] | 0 | 69.3 | 96.1 | 10.3 | 6.1 | 16.3 | 2.7 | 13.6 | 14.7 | 0 | 12.5 | 85 | 0 | 0 | Non-Toxic | 7.8 | 29.6 | 0 |  | 0 | inhibition [24]: 36.2%; inhibition [25]: 18.8%; inhibition [16]: 81.3%; inhibition [23]: 86.5%
CC(=O)OC[C@H]1O[C@@H](OC(C)=O)[C@H](NC(=O)Cc2ccc(C(F)(F)F)cc2)[C@@H](OC(C)=O)[C@@H]1OC(C)=O | 1.1 | 27.2 | 61.7 | 0 | 0 | 2.5 | 0 | 5.9 | 0.9 | 0 | 0 | 13 | 0 | 0 | Non-Toxic | 0 | 9.2 | 0 | 7 | 0 | inhibition [24]: 8.6%; inhibition [7]: 5.6%; inhibition [26]: 19.3%; inhibition [16]: 20.1%; inhibition [23]: 11.3%
CC(=O)OC[C@H]1O[C@@H](OC(C)=O)[C@H](NC(=O)Cc2c[nH]c3ccccc23)[C@@H](OC(C)=O)[C@@H]1OC(C)=O | 1.8 |  | 24.2 | 15.1 | 0 |  | 0 | 12.1 | 2.8 | 0 | 0 |  | 0 | 4.6 | Non-Toxic | 0 | 4 | 0 | 12.5 | 0 | inhibition [7]: 12.5%; inhibition [26]: 0.5%; inhibition [27]: 1.5%
O=C(Cc1ccc(C(F)(F)F)cc1)N[C@@H]1[C@@H](O)[C@H](O)[C@@H](CO)O[C@H]1O | 0 |  |  | 2.5 | 0 | 2.4 | 4.4 | 10.6 | 1.2 | 0 | 0 | 10.1 | 0 | 5.8 | Non-Toxic | 0 | 7.1 | 0 | 10.6 | 7.8 | inhibition [24]: 11.4%; inhibition [7]: 10.3%; inhibition [26]: 17.8%; inhibition [16]: 3.3%; inhibition [27]: 6.6%; inhibition [23]: 12.8%
O=C(Cc1ccc(Cl)cc1)N[C@@H]1[C@@H](O)[C@H](O)[C@@H](CO)O[C@H]1O | 7.4 | 4.6 | 2.8 | 4.5 | 0 |  | 0 | 7 | 11.2 | 0 | 0 | 2 | 1.3 | 0 | Non-Toxic | 0 | 3.4 | 0 | 8.7 | 0 | inhibition [24]: 5.6%; inhibition [7]: 7%; inhibition [26]: 15.3%; inhibition [27]: 11.9%; inhibition [23]: 4.3%
COc1ccc(CC(=O)N[C@H]2[C@H](OC(C)=O)O[C@H](COC(C)=O)[C@@H](OC(C)=O)[C@@H]2OC(C)=O)cc1 | 0 | 28.7 | 25.4 | 0 | 0 | 4.2 | 3.9 | 17.8 | 4.5 | 0 | 0 |  | 0 | 0 | Non-Toxic | 0 | 9.6 | 0 | 18.6 | 0 | inhibition [24]: 6.6%; inhibition [7]: 19.4%; inhibition [26]: 5.6%; inhibition [16]: 0.9%; inhibition [27]: 0.4%
O=C(CCCc1ccccc1)N[C@@H]1[C@@H](O)[C@H](O)[C@@H](CO)O[C@H]1O | 8.8 | 46.7 | 85 | 2.7 | 17.9 | 5.6 | 0 |  | 7.7 | 2.1 | 15.8 | 43.4 | 2.6 | 0 | Non-Toxic | 0 | 9.9 | 21.2 | 17.4 | 2 | inhibition [24]: 8.7%; inhibition [26]: 4.8%; inhibition [25]: 4.3%; inhibition [16]: 38.9%; inhibition [23]: 76.2%
COc1ccc(CC(=O)N[C@@H]2[C@@H](O)[C@H](O)[C@@H](CO)O[C@H]2O)cc1 | 0 | 20.2 | 2.6 | 3 | 0 | 3.2 | 2.9 |  | 0 | 0 | 0 | 10.1 | 0 | 0 | Non-Toxic | 0 | 7.5 | 0 | 3 | 3.3 | inhibition [24]: 6.7%; inhibition [26]: 16.6%; inhibition [25]: 16%; inhibition [16]: 0.8%; inhibition [23]: 3.5%
